Assay results reported in patent publication US11000491B2, “Amino-aryl-benzamide compounds and methods of use thereof” (HEPANOVA, INC., priority 2017, dated 2021).
pEC50: −log10 of the molar value. Like-named read-outs stand apart in the source and are kept apart here.

Columns and labels:
Type in all cases: cell-based
Huh7 cells = test: LD content in Huh7 cells pre-treated with insulin, Oil-Red-O staining, absorbance OD 540 nm; conditions: procedure of Example 3, read-out: LD content inhibition (EC50)
Experimental: FIG. 6. […] Spectrophotometric absorbance of untreated or HPN-01-treated Huh7 cells pre-incubated with 1 mM insulin is shown. LD contents were stained using Oil Red O, and measured by determining spectrophotometer absorbance under OD 540 nm.
Huh7 cells were mock treated or pre-treated with 1 mM insulin, and subsequently treated with indicated amounted of HPN-01.
The ability of each HPN-01 derivative obtained from the synthesis methods described above, to inhibit LD formation in hepatocytes, was tested using the procedure outlined in Example 3. The results of this analysis are shown below in Table 6 (second column).

SREBP-1 = SREBP-1 expression in cultured primary human hepatocytes; conditions: procedure of Example 6, read-out: SREBP-1 mRNA inhibition (EC50)
Experimental: (§1) FIG. 9. Effects of HPN-01 on the expression of SREBP-1 (master regulator of hepatic glucose metabolism and fatty acid synthesis) and SREBP-2 (master regulator of cholesterol homeostasis in cells) in cultured primary human hepatocytes.
(§2) Cultured primary human hepatocytes were treated with various concentrations of HPN-01, and the expression levels of SREBP-1 (master regulator of hepatic glucose metabolism and fatty acid synthesis) and SREBP-2 (master regulator of cholesterol homeostasis in cells) were subsequently determined.
(§3) The ability of each HPN-01 derivative obtained from the synthesis methods described above, to inhibit SREBP-1 and SREBP-2 mRNA expression in primary hepatocytes, was tested using the procedure outlined in Example 6. The results of this analysis are shown in Table 6 (third and fourth columns).

SREBP-2 = SREBP-2 expression in cultured primary human hepatocytes; conditions: procedure of Example 6, read-out: SREBP-2 mRNA inhibition (EC50)
Experimental: as §1, §2, §3

[1] = Homo sapiens, Huh-7, Huh7 cells

Row | Compound | pEC50 (Huh7 cells; [1]) | pEC50 (SREBP-1; Homo sapiens, Hepatocyte) | pEC50 (SREBP-2; Homo sapiens, Hepatocyte) | pEC50 (Huh7 cells; Huh7 cells) | pEC50 (SREBP-1) | pEC50 (SREBP-2) | pEC50 (SREBP-1; Hepatocyte) | pEC50 (SREBP-2; Hepatocyte)
1 | CCCC(=O)Oc1ccc(-c2cc(C(N)=O)c(N)c(-c3ccc(S(N)(=O)=O)cc3)c2)cc1 [HPN-01306, 4′-amino-5′-carbamoyl-4″-sulfamoyl-[1,1′:3′,1″-terphenyl]-4-yl butyrate] | 5.88 | 5.75 | 5.49 |  |  |  |  | 
2 | NC(=O)c1cc(-c2ccc(Cl)cc2)cc(-c2ccc(S(N)(=O)=O)cc2)c1NC(=O)CCO [HPN-01516, 4-chloro-4′-(3-hydroxypropanamido)-4″-sulfamoyl-[1, 1′:3′,1″-terphenyl]-5′-carboxamide] | 5.96 | 5.72 | 5.68 |  |  |  |  | 
3 | NC(=O)Nc1ccc(-c2cc(-c3ccc(Cl)cc3)cc(C(N)=O)c2NC(=O)CO)cc1 [HPN-01506, 4-chloro-4′-(2-hydroxyacetamido)-4″-ureido-[1,1′:3′,1″-terphenyl]-5′-carboxamide] | 5.19 | 5.14 | 4.77 |  |  |  |  | 
4 | NC(=O)c1cc(-c2ccc(Br)cc2)cc(-c2ccc(S(N)(=O)=O)cc2)c1NC(=O)CCO [HPN-01513, 4-bromo-4′-(3-hydroxypropanamido)-4″-sulfamoyl-[1, 1′:3′,1″-terphenyl]-5′-carboxamide] | 6.17 | 5.79 | 5.54 |  |  |  |  | 
5 | 4′-butyramido-4-chloro-4″-sulfamoyl-[1,1′:3′,1″-terphenyl]-5′-carboxamide [HPN-01515] |  |  |  | 6.32 | 6.02 | 5.88 |  | 
6 | NC(=O)c1cc(C#CCOC(=O)c2ccccc2F)cc(-c2ccc(S(N)(=O)=O)cc2)c1N [HPN-01213, 3-(6-amino-5-carbamoyl-4′-sulfamoyl-[1,1′-biphenyl]-3-yl)prop-2-yn-1-yl 2-fluorobenzoate] | 5.89 | 5.34 | 5.31 |  |  |  |  | 
7 | NC(=O)c1cc(-c2ccc(Br)cc2)cc(-c2ccc(OP(=O)(O)O)cc2)c1N [HPN-01416, 6′-amino-4″-bromo-5′-carbamoyl-[1,1′:3′,1″-terphenyl]-4-yl dihydrogen phosphate] | 5.82 |  |  |  |  |  | 5.52 | 5.40
8 | CCCNS(=O)(=O)c1cccc(Oc2cc(-c3ccc(Cl)cc3)cc(C(N)=O)c2N)c1 [HPN-01411, 4-amino-4′-chloro-5-(3-(N-propylsulfamoyl)phenoxy)-[1,1′-biphenyl]-3-carboxamide] | 6.03 | 5.80 | 5.55 |  |  |  |  | 
9 | NC(=O)c1cc(-c2ccc(Cl)cc2)cc(-c2ccc(N3CC=NC3=O)cc2)c1N [HPN-01420, 4′-amino-4-chloro-4″-(2-oxo-2,5-dihydro-1H-imidazol-1-yl)-[1,1′:3′,1″-terphenyl]-5′-carboxamide] | 6.38 | 5.67 | 5.63 |  |  |  |  | 
10 | NC(=O)c1cc(-c2ccc(Cl)cc2)cc(NCCc2ccc(S(N)(=O)=O)cc2)c1N [HPN-01425, 4-amino-4′-chloro-5-((4-sulfamoylphenethyl)amino)-[1,1′-biphenyl]-3-carboxamide] | 5.19 | 5.55 | 5.46 |  |  |  |  | 
11 | CCCNC(=O)c1cc(-c2ccc(Cl)cc2)cc(-c2ccc(S(N)(=O)=O)cc2)c1N [HPN-01603, 4′-amino-4-chloro-N-propyl-4″-sulfamoyl-[1,1′:3′,1″-terphenyl]-5′-carboxamide] | 5.62 | 5.14 | 5.03 |  |  |  |  | 
12 | Nc1c(C(=O)Nc2ccccc2)cc(-c2ccc(Cl)cc2)cc1-c1ccc(S(N)(=O)=O)cc1 [HPN-01611, 4′-amino-4-chloro-N-phenyl-4″-sulfamoyl-[1,1′:3′,1″-terphenyl]-5′-carboxamide] | 6.10 | 5.86 | 5.65 |  |  |  |  | 
13 | 2-amino-5-((3-chlorophenyl)ethynyl)-4′-sulfamoyl-[1,1′-biphenyl]-3-carboxamide [HPN-01206] |  |  |  | 6.05 | 5.77 | 5.97 |  | 
14 | NC(=O)c1cc(-c2ccc(Cl)cc2)cc(-c2ccc(NC(N)=S)cc2)c1N [HPN-01418, 4′-amino-4-chloro-4″-thioureido-[1,1′:3′,1″-terphenyl]-5′-carboxamide] | 6.01 | 5.57 | 5.61 |  |  |  |  | 
15 | NC(=O)c1cc(-c2ccc(Cl)cn2)cc(-c2ccc(S(N)(=O)=O)cc2)c1N [HPN-01308, 2-amino-5-(5-chloropyridin-2-yl)-4′-sulfamoyl-[1,1′-biphenyl]-3-carboxamide] | 5.72 | 5.20 | 4.95 |  |  |  |  | 
16 | Nc1c(C(=O)NCc2cccnc2)cc(-c2ccc(Cl)cc2)cc1-c1ccc(S(N)(=O)=O)cc1 [HPN-01630, 4′-amino-4-chloro-N-(pyridin-3-ylmethyl)-4″-sulfamoyl-[1,1′:3′,1″-terphenyl]-5′-carboxamide] | 5.62 | 5.45 | 5.41 |  |  |  |  | 
17 | NC(=O)c1cc(-c2ccc(Cl)cc2)cc(-c2ccc(OP(=O)(O)O)cc2)c1N [HPN-01405, 6′-amino-5′-carbamoyl-4″-chloro-[1,1′:3′,1″-terphenyl]-4-yl dihydrogen phosphate] | 6.12 |  |  |  |  |  | 5.60 | 5.40
18 | NC(=O)c1cc(-c2ccc(Cl)cc2)cc(-c2ccc(-c3c[nH]nn3)cc2)c1N [HPN-01421, 4′-amino-4-chloro-4″-(1H-1,2,3-triazol-4-yl)-[1,1′:3′,1″-terphenyl]-5′-carboxamide] | 6.12 | 5.82 | 5.65 |  |  |  |  | 
19 | NC(=O)c1cc(C#Cc2cccc(Br)c2)cc(-c2ccc(S(N)(=O)=O)cc2)c1N [HPN-01208, 2-amino-5-((3-bromophenyl)ethynyl)-4′-sulfamoyl-[1,1′-biphenyl]-3-carboxamide] | 5.77 | 5.49 | 5.24 |  |  |  |  | 
20 | NC(=O)c1cc(/C=C/c2ccc(Cl)cc2)cc(-c2ccc(S(N)(=O)=O)cc2)c1N [HPN-01107, (E)-2-amino-5-(4-chlorostyryl)-4′-sulfamoyl-[1,1′-biphenyl]-3-carboxamide] | 5.93 | 5.25 | 5.13 |  |  |  |  | 
21 | methyl (E)-3-(6-amino-4′-(amino-(methylene)sulfinyl)-5-carbamoyl-[1,1′-biphenyl]-3-yl)acrylate [HPN-01114] |  |  |  | 6.68 | 5.90 | 5.61 |  | 
22 | NC(=O)c1cc(C#Cc2ccc(Br)cc2)cc(-c2ccc(S(N)(=O)=O)cc2)c1N [HPN-01207, 2-amino-5-((4-bromophenyl)ethynyl)-4′-sulfamoyl-[1,1′-biphenyl]-3-carboxamide] | 6.01 | 5.71 | 5.56 |  |  |  |  | 
23 | NC(=O)c1cc(-c2ccc(Cl)cc2)cc(-c2ccc(NC(=O)CO)cc2)c1N [HPN-01419, 4′-amino-4-chloro-4″-(2-hydroxyacetamido)-[1,1′:3′,1″-terphenyl]-5′-carboxamide] | 6.30 | 5.74 | 5.45 |  |  |  |  | 
24 | Nc1c(C(=O)NCc2ccc[nH]2)cc(-c2ccc(Cl)cc2)cc1-c1ccc(S(N)(=O)=O)cc1 [HPN-01629, N-((1H-pyrrol-2-yl)methyl)-4′-amino-4-chloro-4″-sulfamoyl-[1,1′:3′,1″-terphenyl]-5′-carboxamide] | 5.86 | 5.70 | 5.07 |  |  |  |  | 
25 | NC(=O)c1cc(/C=C/C(=O)NCc2ccccc2)cc(-c2ccc(S(N)(=O)=O)cc2)c1N [HPN-01131, (E)-2-amino-5-(3-(benzylamino)-3-oxoprop-1-en-1-yl)-4′-sulfamoyl-[1,1′-biphenyl]-3-carboxamide] | 6.42 | 5.89 | 5.65 |  |  |  |  | 
